#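 How tested: cells in 96-well plates exposed to compound for 48 hours at five concentrations. GI50 marks 50% less growth.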 Calls of active or inactive are those of the source. Rule as the data show it: active = GI50 up to about 1.1 µM and inactive = higher.
# Tests used:
# Assay in all cases: DTP human tumour cell line panel, 48 h
# SF-539 = system: SF-539
# TK-10 = system: TK-10
# IGROV-1 = system: IGROV-1
# MDA-MB-231 = system: MDA-MB-231
# DU-145 = system: DU-145
# NCI-H460 = system: NCI-H460
# HCT-15 = system: HCT-15
# LOX IMVI = system: LOX IMVI
# SK-MEL-28 = system: SK-MEL-28
# SK-MEL-5 = system: SK-MEL-5
# Malme-3M = system: Malme-3M
# RXF 393 = system: RXF 393
# OVCAR-4 = system: OVCAR-4
# MOLT-4 = system: MOLT-4
# SK-OV-3 = system: SK-OV-3
# SNB-75 = system: SNB-75
# T47D = system: T47D
# MCF7 = system: MCF7
# HCT-116 = system: HCT-116
# PC-3 = system: PC-3
# SNB-19 = system: SNB-19
# U-251 = system: U-251
# M14 = system: M14
# OVCAR-8 = system: OVCAR-8
# SK-MEL-2 = system: SK-MEL-2
# SW-620 = system: SW-620
# 786-0 = system: 786-0
# Hs-578T = system: Hs-578T
# MDA-N = system: MDA-N
# CCRF-CEM = system: CCRF-CEM
# COLO 205 = system: COLO 205
# EKVX = system: EKVX
# NCI-H23 = system: NCI-H23
# UACC-257 = system: UACC-257
# HCC 2998 = system: HCC 2998
# SF-295 = system: SF-295
# BT-549 = system: BT-549
# MDA-MB-435 = system: MDA-MB-435
# HOP-92 = system: HOP-92
# RPMI-8226 = system: RPMI-8226
# NCI-H522 = system: NCI-H522
# SN12C = system: SN12C
# OVCAR-5 = system: OVCAR-5
# UO-31 = system: UO-31
# HOP-62 = system: HOP-62
# CAKI-1 = system: CAKI-1
# SF-268 = system: SF-268
# HT-29 = system: HT-29
# UACC-62 = system: UACC-62
# NCI/ADR-RES = system: NCI/ADR-RES
# A549 = system: A549
# ACHN = system: ACHN
# NCI-H226 = system: NCI-H226
# OVCAR-3 = system: OVCAR-3
# SR = system: SR
# HL-60 = system: HL-60
# KM12 = system: KM12
# K562 = system: K562
smiles,measurement,setting,value
C(=C\c1cccs1)/c1cccc(/C=C/c2cccs2)n1,GI50,SF-539,> 100 µM (inactive)
same,GI50,TK-10,34.9 µM (inactive)
same,GI50,IGROV-1,50 µM (inactive)
same,GI50,MDA-MB-231,> 100 µM (inactive)
same,GI50,DU-145,> 100 µM (inactive)
same,GI50,NCI-H460,36.4 µM (inactive)
same,GI50,HCT-15,> 100 µM
same,GI50,LOX IMVI,> 100 µM (inactive)
same,GI50,SK-MEL-28,> 100 µM (inactive)
same,GI50,SK-MEL-5,> 100 µM (inactive)
same,GI50,Malme-3M,1.72 µM (inactive)
same,GI50,RXF 393,> 100 µM (inactive)
same,GI50,OVCAR-4,12.4 µM (inactive)
same,GI50,MOLT-4,> 100 µM (inactive)
same,GI50,SK-OV-3,> 100 µM (inactive)
same,GI50,SNB-75,19.3 µM (inactive)
same,GI50,T47D,6.14 µM (inactive)
same,GI50,MCF7,3.55 µM (inactive)
same,GI50,HCT-116,> 100 µM (inactive)
same,GI50,PC-3,> 100 µM (inactive)
same,GI50,SNB-19,78.9 µM (inactive)
same,GI50,U-251,54.7 µM (inactive)
same,GI50,M14,> 100 µM (inactive)
same,GI50,OVCAR-8,60.5 µM (inactive)
same,GI50,SK-MEL-2,> 100 µM (inactive)
same,GI50,SW-620,24.8 µM (inactive)
same,GI50,786-0,35.3 µM (inactive)
same,GI50,Hs-578T,2.58 µM (inactive)
same,GI50,MDA-N,> 100 µM (inactive)
same,GI50,CCRF-CEM,> 100 µM (inactive)
same,GI50,COLO 205,32.1 µM (inactive)
same,GI50,EKVX,> 100 µM (inactive)
same,GI50,NCI-H23,> 100 µM (inactive)
same,GI50,UACC-257,> 100 µM (inactive)
same,GI50,HCC 2998,56.9 µM (inactive)
same,GI50,SF-295,> 100 µM (inactive)
same,GI50,BT-549,22 µM (inactive)
same,GI50,MDA-MB-435,> 100 µM (inactive)
same,GI50,HOP-92,> 100 µM (inactive)
same,GI50,RPMI-8226,> 100 µM (inactive)
same,GI50,NCI-H522,1.53 µM (inactive)
same,GI50,SN12C,61 µM (inactive)
same,GI50,OVCAR-5,> 100 µM (inactive)
same,GI50,UO-31,30.3 µM (inactive)
same,GI50,HOP-62,83 µM (inactive)
same,GI50,CAKI-1,> 100 µM (inactive)
same,GI50,SF-268,2.61 µM (inactive)
same,GI50,HT-29,> 100 µM (inactive)
same,GI50,UACC-62,> 100 µM (inactive)
same,GI50,NCI/ADR-RES,> 100 µM (inactive)
same,GI50,A549,60.7 µM (inactive)
same,GI50,ACHN,8.11 µM (inactive)
same,GI50,NCI-H226,> 100 µM (inactive)
same,GI50,OVCAR-3,50.8 µM (inactive)
same,GI50,SR,32.4 µM (inactive)
same,GI50,HL-60,> 100 µM (inactive)
same,GI50,KM12,4.3 µM (inactive)
same,GI50,K562,> 100 µM (inactive)
Cc1ccc(Nc2nc3ccccc3c(=O)n2N)cc1,GI50,SF-539,> 100 µM (inactive)
same,GI50,TK-10,> 100 µM (inactive)
same,GI50,IGROV-1,88.3 µM (inactive)
same,GI50,MDA-MB-231,> 100 µM (inactive)
same,GI50,DU-145,> 100 µM (inactive)
same,GI50,NCI-H460,> 100 µM (inactive)
same,GI50,HCT-15,> 100 µM
same,GI50,LOX IMVI,> 100 µM (inactive)
same,GI50,SK-MEL-28,> 100 µM (inactive)
same,GI50,SK-MEL-5,> 100 µM (inactive)
same,GI50,Malme-3M,> 100 µM (inactive)
same,GI50,RXF 393,> 100 µM (inactive)
same,GI50,OVCAR-4,> 100 µM (inactive)
same,GI50,MOLT-4,> 100 µM (inactive)
same,GI50,SK-OV-3,> 100 µM (inactive)
same,GI50,SNB-75,75 µM (inactive)
same,GI50,T47D,> 100 µM (inactive)
same,GI50,MCF7,> 100 µM (inactive)
same,GI50,HCT-116,> 100 µM (inactive)
same,GI50,PC-3,> 100 µM (inactive)
same,GI50,SNB-19,> 100 µM (inactive)
same,GI50,U-251,> 100 µM (inactive)
same,GI50,M14,> 100 µM (inactive)
same,GI50,OVCAR-8,> 100 µM (inactive)
same,GI50,SK-MEL-2,> 100 µM (inactive)
same,GI50,SW-620,> 100 µM (inactive)
same,GI50,786-0,> 100 µM (inactive)
same,GI50,Hs-578T,> 100 µM (inactive)
same,GI50,MDA-N,> 100 µM (inactive)
same,GI50,CCRF-CEM,> 100 µM (inactive)
same,GI50,COLO 205,> 100 µM (inactive)
same,GI50,EKVX,> 100 µM (inactive)
same,GI50,NCI-H23,> 100 µM (inactive)
same,GI50,UACC-257,> 100 µM (inactive)
same,GI50,HCC 2998,> 100 µM (inactive)
same,GI50,SF-295,> 100 µM (inactive)
same,GI50,BT-549,> 100 µM (inactive)
same,GI50,MDA-MB-435,> 100 µM (inactive)
same,GI50,HOP-92,> 100 µM (inactive)
same,GI50,RPMI-8226,> 100 µM (inactive)
same,GI50,NCI-H522,> 100 µM (inactive)
same,GI50,SN12C,> 100 µM (inactive)
same,GI50,OVCAR-5,> 100 µM (inactive)
same,GI50,UO-31,> 100 µM (inactive)
same,GI50,HOP-62,> 100 µM (inactive)
same,GI50,CAKI-1,> 100 µM (inactive)
same,GI50,SF-268,> 100 µM (inactive)
same,GI50,HT-29,78.2 µM (inactive)
same,GI50,UACC-62,> 100 µM (inactive)
same,GI50,NCI/ADR-RES,> 100 µM (inactive)
same,GI50,A549,> 100 µM (inactive)
same,GI50,ACHN,> 100 µM (inactive)
same,GI50,NCI-H226,> 100 µM (inactive)
same,GI50,OVCAR-3,> 100 µM (inactive)
same,GI50,SR,> 100 µM (inactive)
same,GI50,HL-60,> 100 µM (inactive)
same,GI50,KM12,> 100 µM (inactive)
same,GI50,K562,> 100 µM (inactive)

# From ChEMBL document CHEMBL1201862, “PubChem BioAssay data set” (2004)
